The target of this assay is GABA-A receptor; anion channel. The assay is described as follows: Binding affinity towards benzodiazepine/GABA A receptor. The arrangement: unit not given here. It is filed as protein-complex assay.
Turning to `O=C1CN=C(c2ccccc2Cl)c2cc(Cl)ccc2N1` [DELORAZEPAM], the “Log IC50” value was -0.255.
Then `Nc1ccc2c(c1)C(c1ccccc1Cl)=NCC(=O)N2` [7-AMINOCLONAZEPAM], with -1.875.
With `CN1C(=O)CN=C(c2ccccc2F)c2cc(I)ccc21`, the “Log IC50” value is on record as -0.462.
The same measure for `O=C1CN=C(c2ccccc2)c2cc([N+](=O)[O-])ccc2N1` [NITRAZEPAM]: -1; for `CN1C(=O)CN=C(c2ccccc2)c2cc(N)ccc21`: -2.663; for `CN1C(=O)CN=C(c2ccccc2F)c2cc(NO)ccc21`: -1.982.
Then `CN1C(=O)CN=C(c2ccccc2Cl)c2ccccc21`, with -0.58.
Then `O=C1CN=C(c2ccccc2)c2cc(C(F)(F)F)ccc2N1` [RO-052904], with -1.114; and `CN1C(=O)CN=C(c2ccccc2F)c2cc(F)ccc21`, with -0.708.
With `O=C1CN=C(c2ccccc2)c2cc(Cl)ccc2N1` [NORDAZEPAM], the “Log IC50” value is recorded as -0.973.
Then `COCN1C(=O)CN=C(c2ccccc2)c2cc([N+](=O)[O-])ccc21` [MOTRAZEPAM], with -2.633; and `O=C1CN=C(c2c(Cl)cccc2Cl)c2cc(Cl)ccc2N1` [RO-223294], with -0.845; and `CN1C(=O)CN=C(c2ccccc2)c2cc(Cl)c(Cl)cc21`, with -1.602.
Then `CN1C(=O)CN=C(c2ccccc2F)c2cc(C#N)ccc21`, with -1.477; and `CC(C)(C)N1C(=O)CN=C(c2ccccc2F)c2cc([N+](=O)[O-])ccc21`, with -2.477.
Consider `O=C1CN=C(c2c(F)cccc2F)c2ccccc2N1`, for which the “Log IC50” value is reported as -1.279.
Then `CN1C(=O)CN=C(c2ccccc2F)c2ccccc21` [RO-054520], with -1.146.
The same measure for `O=C1CN=C(c2ccccc2C(F)(F)F)c2cc([N+](=O)[O-])ccc2N1`: -0.544.
The same measure for `[N-]=[N+]=Nc1ccc2c(c1)C(c1ccccc1F)=NCC(=O)N2`: -0.724; for `Nc1ccc2c(c1)C(c1ccccc1)=NCC(=O)N2` [7-AMINO-NITRAZEPAM]: -2.587; for `O=C1CN=C(c2ccccc2)c2cc(Cl)ccc2N1CC(F)(F)F` [HALAZEPAM]: -1.964.
With `CN1C(=O)CN=C(c2c(F)cccc2F)c2cc(Br)ccc21`, the “Log IC50” value was -0.38.
The same measure for `C=Cc1ccc2c(c1)C(c1ccccc1)=NCC(=O)N2`: -1.38; for `O=C1CN=C(c2ccccc2F)c2cc([N+](=O)[O-])ccc2N1`: -0.176; for `O=C1CN=C(c2ccccc2F)c2ccccc2N1`: -1.322.
Then `CCc1ccc2c(c1)C(c1ccccc1)=NCC(=O)N2`, with -1.556; and `CN1C(=O)C(O)N=C(c2ccccc2)c2cc(Cl)ccc21` (centres undefined) [TEMAZEPAM], with -1.204.
For `CN1C(=O)CN=C(c2c(F)cccc2F)c2cc(Cl)ccc21`, the “Log IC50” value was -0.613.
Then `O=C1CN=C(c2c(F)cccc2F)c2cc(Cl)ccc2N1`, with -0.204; and `CN1C(=O)CN=C(c2ccccc2F)c2cc(N)ccc21` [7-AMINO-FLUNITRAZEPAM], with -1.813.
The same measure for `O=Cc1ccc2c(c1)C(c1ccccc1)=NCC(=O)N2`: -1.633; for `CN1C(=O)CN=C(c2ccccc2)c2cc(F)ccc21`: -1.23.
Then `O=C1CN=C(c2ccccc2Cl)c2cc([N+](=O)[O-])ccc2N1` [CLONAZEPAM], with -0.255; and `O=C1CN=C(c2ccccc2)c2cc(F)ccc2N1` [RO-053061], with -1.602; and `O=C1CN=C(c2ccccc2F)c2cc(Cl)ccc2N1`, with -0.301.
For the compound `CN1C(=O)CN=C(c2c(Cl)cccc2Cl)c2cc(Cl)ccc21`, the “Log IC50” value is listed as -0.74.
Then `CN1C(=O)CN=C(c2ccccc2Cl)c2cc([N+](=O)[O-])ccc21` [RO-054082], with -0.342.
Then `CC(C)(C)N1C(=O)CN=C(c2ccccc2)c2cc(Cl)ccc21`, with -2.792; and `O=C1CN=C(c2ccccc2F)c2cc(F)ccc2N1`, with -0.869.
Then `CN1C(=O)CN=C(c2ccccc2)c2cc(C#N)ccc21`, with -2.58.
Take `CC1N=C(c2ccccc2)c2cc(Cl)ccc2N(Cl)C1=O` (centres undefined): the “Log IC50” value is reported as -1.69.
Then `O=C1Nc2ccc(Cl)cc2C(c2ccccc2F)=NC1Cl` (centres undefined), with -0.724.
Turning to `Cc1ccc2c(c1)NC(=O)CN=C2c1ccccc1F`, the “Log IC50” value was -1.279.
For the compound `O=C1CN=C(c2c(F)cccc2F)c2ccc(Cl)cc2N1`, the “Log IC50” value is recorded as -1.447.

For the origin of these results see ChEMBL document CHEMBL1128247, “Prediction of receptor properties and binding affinity of ligands to benzodiazepine/GABAA receptors using artificial neural networks” (J Med Chem, 1995).
